From the NIST ThermoML archive (doi:10.1016/j.tca.2006.05.019)
Values joined by “and” are separate entries in the source; they are usually repeats but may differ in a detail not shown here. Identical values can stand only once.

Assay: molar heat capacity at constant pressure
Conditions: 101.33 kPa, Crystal, Vacuum adiabatic calorimetry

O=P([O-])([O-])[O-].[Lu+3] [lutetium phosphate]
Conditions	molar heat capacity at constant pressure
6 K	0.0357 J/K/mol
6.51 K	0.0482 J/K/mol
7.08 K	0.04711 J/K/mol
7.62 K	0.06861 J/K/mol
8 K	0.0845 J/K/mol
8.12 K	0.1033 J/K/mol
8.6 K	0.1229 J/K/mol
9.16 K	0.1232 J/K/mol
9.76 K	0.1438 J/K/mol
10 K	0.165 J/K/mol
10.35 K	0.1797 J/K/mol
10.95 K	0.1984 J/K/mol
11.52 K	0.2437 J/K/mol
12 K	0.286 J/K/mol
12.05 K	0.2931 J/K/mol
12.7 K	0.351 J/K/mol
13.5 K	0.4239 J/K/mol
14 K	0.455 J/K/mol
14.29 K	0.5003 J/K/mol
15.07 K	0.5881 J/K/mol
15.96 K	0.7241 J/K/mol
16 K	0.676 J/K/mol
16.71 K	0.8304 J/K/mol
17.45 K	0.9728 J/K/mol
18 K	0.962 J/K/mol
18.21 K	1.085 J/K/mol
18.94 K	1.201 J/K/mol
19.66 K	1.318 J/K/mol
20 K	1.32 J/K/mol
21.37 K	1.733 J/K/mol
23.76 K	2.354 J/K/mol
25 K	2.54 J/K/mol
26.16 K	3.067 J/K/mol
28.57 K	3.861 J/K/mol
30 K	4.26 J/K/mol
30.99 K	4.819 J/K/mol
33.41 K	5.784 J/K/mol
35 K	6.39 J/K/mol
35.85 K	6.862 J/K/mol
38.3 K	7.989 J/K/mol
40 K	8.83 J/K/mol
40.76 K	9.131 J/K/mol
43.21 K	10.48 J/K/mol
45 K	11.45 J/K/mol
45.69 K	11.91 J/K/mol
48.16 K	13.16 J/K/mol
50 K	14.18 J/K/mol
50.64 K	14.44 J/K/mol
53.13 K	15.87 J/K/mol
55 K	16.93 J/K/mol
55.63 K	17.16 J/K/mol
58.13 K	18.55 J/K/mol
60 K	19.67 J/K/mol
60.65 K	19.95 J/K/mol
63.14 K	21.38 J/K/mol
65 K	22.38 J/K/mol
65.64 K	22.73 J/K/mol
68.13 K	23.87 J/K/mol
70 K	25.05 J/K/mol
70.62 K	25.39 J/K/mol
73.11 K	26.96 J/K/mol
75 K	27.68 J/K/mol
75.6 K	28.21 J/K/mol
78.1 K	29.35 J/K/mol
80 K	30.26 J/K/mol
80.6 K	30.69 J/K/mol
83.1 K	31.8 J/K/mol
83.67 K	31.97 J/K/mol
85 K	32.8 J/K/mol
87.39 K	33.75 J/K/mol
90 K	35.28 J/K/mol
91 K	35.61 J/K/mol
94.62 K	37.52 J/K/mol
95 K	37.72 J/K/mol
98.23 K	39.26 J/K/mol
100 K	40.1 J/K/mol
101.84 K	41.01 J/K/mol
105.45 K	42.73 J/K/mol
109.04 K	44.39 J/K/mol
110 K	44.74 J/K/mol
112.63 K	45.93 J/K/mol
116.21 K	47.44 J/K/mol
119.79 K	49.06 J/K/mol
120 K	49.17 J/K/mol
123.37 K	50.6 J/K/mol
126.95 K	52.07 J/K/mol
130 K	53.39 J/K/mol
130.52 K	53.52 J/K/mol
134.08 K	54.89 J/K/mol
134.32 K	54.86 J/K/mol
137.64 K	56.24 J/K/mol
137.89 K	56.62 J/K/mol
140 K	57.42 J/K/mol
141.14 K	57.72 J/K/mol
144.67 K	59.01 J/K/mol
148.2 K	60.39 J/K/mol
150 K	61.25 J/K/mol
151.73 K	61.98 J/K/mol
152.2 K	62.31 J/K/mol
155.77 K	63.71 J/K/mol
159.34 K	65.02 J/K/mol
160 K	64.87 J/K/mol
162.89 K	66.21 J/K/mol
166.44 K	67.34 J/K/mol
169.99 K	68.5 J/K/mol
170 K	68.32 J/K/mol
173.53 K	69.66 J/K/mol
177.02 K	70.76 J/K/mol
180 K	71.58 J/K/mol
180.54 K	71.85 J/K/mol
184.06 K	72.87 J/K/mol
187.57 K	73.85 J/K/mol
190 K	74.68 J/K/mol
191.08 K	75.02 J/K/mol
194.58 K	76.04 J/K/mol
198.07 K	77.09 J/K/mol
200 K	77.61 J/K/mol
201.56 K	78.14 J/K/mol
205.03 K	78.99 J/K/mol
208.5 K	79.97 J/K/mol
210 K	80.41 J/K/mol
211.96 K	80.72 J/K/mol
215.42 K	81.51 J/K/mol
218.87 K	82.45 J/K/mol
220 K	83.06 J/K/mol
222.31 K	83.48 J/K/mol
225.73 K	84.25 J/K/mol
229.14 K	85.1 J/K/mol
230 K	85.6 J/K/mol
233.68 K	86.38 J/K/mol
235.82 K	87.08 J/K/mol
237.13 K	87.2 J/K/mol
239.2 K	87.62 J/K/mol
240 K	88.01 J/K/mol
242.56 K	88.31 J/K/mol
245.94 K	89.1 J/K/mol
249.32 K	90.16 J/K/mol
250 K	90.31 J/K/mol
250.77 K	90.59 J/K/mol
254.14 K	91.42 J/K/mol
255.94 K	91.8 J/K/mol
259.22 K	92.4 J/K/mol
260 K	92.51 J/K/mol
260.67 K	92.92 J/K/mol
263.97 K	93.72 J/K/mol
267.27 K	94.37 J/K/mol
270 K	94.6 J/K/mol
270.55 K	94.95 J/K/mol
273.81 K	95.59 J/K/mol
277.04 K	96.19 J/K/mol
278.55 K	96.28 J/K/mol and 96.26 J/K/mol
280 K	96.61 J/K/mol
280.25 K	96.75 J/K/mol
281.69 K	96.92 J/K/mol and 96.9 J/K/mol
283.44 K	97.38 J/K/mol
284.59 K	97.37 J/K/mol
286.58 K	97.91 J/K/mol
287.72 K	97.96 J/K/mol
289.7 K	98.45 J/K/mol
290 K	98.53 J/K/mol
290.83 K	98.55 J/K/mol
292.79 K	99.14 J/K/mol
293.91 K	99.28 J/K/mol
295.89 K	99.69 J/K/mol
296.98 K	99.82 J/K/mol
298.92 K	100.3 J/K/mol
300 K	100.4 J/K/mol
300.03 K	100.5 J/K/mol
303.01 K	100.9 J/K/mol
306.01 K	101.4 J/K/mol
309.71 K	101.9 J/K/mol
310 K	102.1 J/K/mol
312.4 K	102.4 J/K/mol
315.23 K	102.9 J/K/mol
318.03 K	103.6 J/K/mol
320 K	103.8 J/K/mol
